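Five compound concentrations were applied to cells in 96-well plates for 48 hours; endpoints were derived by simple linear interpolation of the resulting dose-response curve. GI50: concentration for 50% inhibition of growth.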 Calls of active or inactive are those of the source. Rule as the data show it: active = GI50 up to about 1.1 µM and inactive = higher.
Legend:
Assay in all cases: NCI-60 cell line screen, 48 h
NCI/ADR-RES = system: NCI/ADR-RES
SF-539 = system: SF-539
T47D = system: T47D
HOP-92 = system: HOP-92
HOP-62 = system: HOP-62
SK-OV-3 = system: SK-OV-3
OVCAR-3 = system: OVCAR-3
RXF 393 = system: RXF 393
SK-MEL-28 = system: SK-MEL-28
SN12C = system: SN12C
K562 = system: K562
M14 = system: M14
MDA-N = system: MDA-N
HCT-15 = system: HCT-15
BT-549 = system: BT-549
CCRF-CEM = system: CCRF-CEM
SF-268 = system: SF-268
NCI-H460 = system: NCI-H460
OVCAR-8 = system: OVCAR-8
HT-29 = system: HT-29

| Compound | GI50 (NCI/ADR-RES) | GI50 (SF-539) | GI50 (T47D) | GI50 (HOP-92) | GI50 (HOP-62) | GI50 (SK-OV-3) | GI50 (OVCAR-3) | GI50 (RXF 393) | GI50 (SK-MEL-28) | GI50 (SN12C) | GI50 (K562) | GI50 (M14) | GI50 (MDA-N) | GI50 (HCT-15) [µM] | GI50 (BT-549) | GI50 (CCRF-CEM) | GI50 (SF-268) | GI50 (NCI-H460) | GI50 (OVCAR-8) | GI50 (HT-29) |
| --- | --- | --- | --- | --- | --- | --- | --- | --- | --- | --- | --- | --- | --- | --- | --- | --- | --- | --- | --- | --- |
| CNC(=O)CC1NC(=O)c2csc(n2)-c2ccc(-c3nc(C4=NC(C(=O)N5CCCC5C(N)=O)CO4)cs3)nc2-c2csc(n2)-c2csc(n2)C(C(C)C)NC(=O)CNC(=O)c2csc(n2)C(C(C)C)NC(=O)c2nc1sc2C (configuration not stated) | 6.05 µM (inactive) | 0.00113 µM (active) | 0.0033 µM (active) | 0.968 µM (active) | 0.00826 µM (active) | 0.0013 µM (active) | 0.00979 µM (active) | 0.00386 µM (active) | > 25 µM (inactive) | 0.00398 µM (active) | 0.00239 µM (active) | 0.0123 µM (active) | > 25 µM (inactive) | 0.479 | 0.0268 µM (active) | 0.00527 µM (active) | 0.0625 µM (active) | 0.00194 µM (active) | 0.00485 µM (active) | > 25 µM (inactive) |
| COC(=O)C1(CCC(=O)N(C)c2ccccc2)NNC2C(=O)N(c3ccccc3)C(=O)C21 (configuration not stated) | > 10 µM (inactive) | > 10 µM (inactive) | > 10 µM (inactive) | > 10 µM (inactive) | > 10 µM (inactive) | > 10 µM (inactive) | > 10 µM (inactive) | > 10 µM (inactive) | > 10 µM (inactive) | > 10 µM (inactive) | – | > 10 µM (inactive) | > 10 µM (inactive) | > 10 | > 10 µM (inactive) | > 10 µM (inactive) | > 10 µM (inactive) | > 10 µM (inactive) | > 10 µM (inactive) | > 10 µM (inactive) |
| COC(=O)Nc1nc2cc(NC(=O)c3ccc(I)cc3)ccc2[nH]1 | > 100 µM (inactive) | > 100 µM (inactive) | > 100 µM (inactive) | > 100 µM (inactive) | > 100 µM (inactive) | > 100 µM (inactive) | > 100 µM (inactive) | > 100 µM (inactive) | > 100 µM (inactive) | > 100 µM (inactive) | > 100 µM (inactive) | > 100 µM (inactive) | > 100 µM (inactive) | > 100 | > 100 µM (inactive) | > 100 µM (inactive) | > 100 µM (inactive) | > 100 µM (inactive) | > 100 µM (inactive) | > 100 µM (inactive) |
| Cc1ccc2c(c1)[nH]c(=S)n2C=C1C(=O)CC(C)(C)CC1=O | > 100 µM (inactive) | > 100 µM (inactive) | > 100 µM (inactive) | > 100 µM (inactive) | > 100 µM (inactive) | > 100 µM (inactive) | > 100 µM (inactive) | > 100 µM (inactive) | > 100 µM (inactive) | > 100 µM (inactive) | – | > 100 µM (inactive) | > 100 µM (inactive) | > 100 | > 100 µM (inactive) | > 100 µM (inactive) | > 100 µM (inactive) | > 100 µM (inactive) | > 100 µM (inactive) | > 100 µM (inactive) |
| COC(=O)c1ccc(/C=N/c2ccc(S(N)(=O)=O)cc2)cc1 | 58.5 µM (inactive) | 38.2 µM (inactive) | > 100 µM (inactive) | 65.5 µM (inactive) | > 100 µM (inactive) | > 100 µM (inactive) | 87.1 µM (inactive) | > 100 µM (inactive) | > 100 µM (inactive) | 73.8 µM (inactive) | – | 53.5 µM (inactive) | 59.7 µM (inactive) | > 100 | > 100 µM (inactive) | 30.8 µM (inactive) | > 100 µM (inactive) | > 100 µM (inactive) | 89.1 µM (inactive) | > 100 µM (inactive) |

Reference: ChEMBL document CHEMBL1201862, “PubChem BioAssay data set” (2004)
